In patent US20220241409A1, “WATER SOLUBLE ADJUVANT AND COMPOSITION CONTAINING SAME” (Sumitomo Dainippon Pharma Co., Ltd., priority 2019, published 2022):

Tests used:
[1] = tested on: mouse bone marrow-derived dendritic cell; assay: Activation of mouse bone marrow-derived dendritic cell, cytokine/chemokine production (Test 4); format: cell-based; settings: 200 nmol/L, one day, compared with only DMSO
Method: Myeloid cells were collected from the femur and tibia of HLA-A*02:01 transgenic mouse (C57BL/6CrHLA-A2.1DR1), and then suspended in RPMI 1640 medium with 10% fetal bovine serum (FBS) and 10 ng/mL of GM-CSF. The dendritic cells in the myeloid cells were incubated at 37° C. under an atmosphere of 5% CO2 for induction of differentiation. Seven days after the incubation, the cells were collected. After observing the expression of CD11c on the cell surface by flow cytometry, the cells were cryopreserved. Cryopreserved mouse bone marrow-derived dendritic cells were reconstituted, suspended in RPMI 1640 medium with 10% FBS, and seeded on a U-bottom 96 well plate at 5×10^5 cells/well. The compound prepared in Example 3 was added in the presence of 0.1% (v/v) DMSO to the wells at a final concentration of 200 nmol/L. The plate was incubated at 37° C. under an atmosphere of 5% CO2. One day after the incubation, the culture supernatant was collected. The concentration of cytokine and chemokine (IL-1p, IL-6, IL-12p40, IL-12p70, IP-10, MIP-1α, MIP-1β, Rantes, and TNFα) which were included in each culture supernatant was measured with Milliplex Mouse Cytokine/Chemokine Magnetic Bead Panel kit (Millipore) and Luminex system in accordance with the manufacturer's protocol. […]

Antigen-Specific CTL = assay: Immune response of antigen-specific CTL for peptide and tumor cell, vaccine a (Test 11); format: in vivo, mouse
Method: The immune response of CTL induced with a vaccine comprising the present compound in the presence of tumor cells was evaluated in the following procedure. The vaccine was administered to a HLA-A*02:01 transgenic mouse to prepare splenocyte comprising an antigen peptide-specific CTL, and the immune response was evaluated by incubating the spelenocyte in the presence of tumor cells and antigen peptides.
Specifically, vaccine a prepared like Test 6 was injected to a HLA-A*02:01 transgenic mouse intradermally at the tail base area in an amount for administering 300 μg of Compound of formula 4 per body and 225 μg of Peptide SEQ ID No. 3 per body. Or, in the step of preparing vaccine a, the compound prepared in Example 3 was added to the diluted peptide solution to prepare a vaccine, and the prepared vaccine was injected to a HLA-A*02:01 transgenic mouse intradermally at the tail base area in an amount for administering 300 μg of Compound of formula 4 per body, 225 μg of Peptide SEQ ID No. 3 per body, and 32.5 ng of the compound prepared in Example 3 per body. The administrations were done twice, which had one week interval. One week after the final administration, the mice were sacrificed with CO2 gas, and then spleens removed from the mice. A splenocyte suspension was prepared from the spleens with Complete T-cell Medium (hereinafter, CTM). The splenocytes derived from each three mice per group were mixed. The mixed splenocytes were stained with an FITC-labeled anti-CD8 antibody (BD Pharmingen) and a PE-labeled HLA tetramer (MBL) against Peptide SEQ ID NO. 1, and analyzed for peptide-specific CTLs with a flow cytometer.
The peptide (SEQ ID No. 1) solution was added to a part of the splenocyte at a final concentration of 100 μg/mL, and the cells were stood for about one hour at 37° C., 5% CO2. After excess peptides were washed out with CTM, the peptide-pulsed splenocyte and unpulsed splenocyte were mixed at a ratio of 1:10, and the mixture was seeded on a U-bottom 96 well plate at 3.85×10^5 cells/well. A cell line (hereinafter, also referred to as LLC-HHD-WT1 tumor cells) was established by stably expressing HHD [a chimeric HLA of a human MHC (HLA-A*02:01) and a mouse MHC (H-2D^b)] and antigen peptide (SEQ ID No. 1) in a mouse Lewis lung carcinoma cell line LLC as tumor cells. X-ray (50 Gy) was irradiated to the LLC-HHD-WT1 tumor cells, and then the LLC-HHD-WT1 tumor cells were cultured in the presence of a mouse recombinant IFN-γ (100 ng/mL) for about two days and washed with CTM. […] The concentration of mouse IFN-γ in the culture supernatant was measured with an ELISA kit (R&D Systems). […] 1, and analyzed for peptide-specific CTLs with a flow cytometer.

Q: What does the source list for CCCCOc1nc(N)c2[nH]c(=O)n(Cc3ccc(CN(C)CCOCCOCCOCCOCCO)cc3)c2n1 [Example 3, 6-amino-2-butoxy-9-{[4-(16-hydroxy-2-methyl-5,8,11,14-tetraoxa-2-azahexadecan-1-yl)phenyl]methyl}-7,9-dihydro-8H-purin-8-one]?
A: yield of cytokine and chemokine (IL-1β, IL-6, IL-12p40, IL-12p70, IP-10, MIP-1α, MIP-1β, Rantes, TNFα) [1]: higher; amount of IFN-γ produced from the CTL in the mixed culture, relative to vaccine a without compound (Antigen-Specific CTL; about three days culture with LLC-HHD-WT1 tumor cells and Peptide SEQ ID No. 1, ELISA, average of 3 wells): 4.9 times; difference in CTL specific to Peptide SEQ ID No. 1 versus vaccine a without compound (Antigen-Specific CTL; after about three days culture with LLC-HHD-WT1 tumor cells and Peptide SEQ ID No. 1): 3.6 times; CTLs specific to Peptide (SEQ ID No. 1) in splenocyte, relative to vaccine a without compound (Antigen-Specific CTL; before culture, flow cytometry (tetramer), 32.5 ng per body in vaccine a, twice): 1.7 times; change of CTL specific to Peptide SEQ ID No. 1 on culture with tumor cells (Antigen-Specific CTL; splenocytes mixed with tumor cells and cultured in the presence of Peptide SEQ ID No. 1): increased
